Experimental data as given in ChEMBL document CHEMBL1201862, “PubChem BioAssay data set” (2004).
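In this assay, cells in 96-well plates receive the compound at five concentrations for 48 hours. Endpoints are linearly interpolated between the surrounding concentrations. GI50: concentration for 50% inhibition of growth.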 The source made the active and inactive calls. No stated cut-off is given here; in the data, active = GI50 up to about 1.1 µM and inactive = higher.

What was measured:
Experiment in all cases: DTP human tumour cell line panel, 48 h
[1] = tested on: COLO 205
[2] = tested on: HOP-92
[3] = tested on: M14
[4] = tested on: NCI-H23
[5] = tested on: NCI-H522
[6] = tested on: OVCAR-3
[7] = tested on: OVCAR-4
[8] = tested on: RPMI-8226
[9] = tested on: SK-MEL-5
[10] = tested on: SNB-75
[11] = tested on: SW-620
[12] = tested on: TK-10
[13] = tested on: UO-31
[14] = tested on: K562
[15] = tested on: SN12C
[16] = tested on: A498

Measured: GI50

CCNC(=O)/C=C/CCC#Cc1ccc(-c2ccc(-c3cccs3)s2)s1
inactive: [1] 1.63 µM | [2] > 100 µM | [3] 5.61 µM | [4] > 100 µM | [5] > 100 µM | [6] > 100 µM | [7] > 100 µM | [8] > 100 µM | [9] 5.24 µM | [10] > 100 µM | [11] > 100 µM | [12] > 100 µM | [13] > 100 µM

CC(=O)O[C@]12CCCCCCC1C1(O)C(O)CCC[C@H]12 (some centres undefined)
inactive: [1] > 100 µM | [14] > 100 µM | [3] > 100 µM | [4] > 100 µM | [5] > 100 µM | [7] > 100 µM | [8] > 100 µM | [9] > 100 µM | [15] > 100 µM | [10] > 100 µM | [11] > 100 µM | [12] > 100 µM | [13] > 100 µM

CC1=NN(C(=O)c2cc(Cl)cc([N+](=O)[O-])c2)C(=O)C1/N=N/c1ccccc1C(=O)O (centres undefined)
inactive: [16] > 100 µM | [1] > 100 µM | [14] > 100 µM | [4] > 100 µM | [5] 36.6 µM | [6] > 100 µM | [8] > 100 µM | [9] > 100 µM | [15] > 100 µM | [10] 75.2 µM | [11] > 100 µM | [12] > 100 µM | [13] > 100 µM

CCOC(=O)CCc1c(C)c2c(OC(C)=O)cc(OC(C)=O)cc2oc1=O
inactive: [1] > 100 µM | [2] 6.9 µM | [3] 43 µM | [4] 44.8 µM | [5] 50.4 µM | [6] 27.4 µM | [7] 42 µM | [15] 28.4 µM | [10] 21.7 µM | [11] 45.7 µM | [12] > 100 µM | [13] 46.2 µM

Cc1ccc([N+](=O)[O-])cc1NC(=O)c1cccc([N+](=O)[O-])c1O
inactive: [16] 11.3 µM | [1] 17.1 µM | [14] 12.3 µM | [3] 16.8 µM | [4] 12.3 µM | [5] 3.97 µM | [6] 7.24 µM | [8] 4.73 µM | [9] 7.91 µM | [15] 23.8 µM | [10] 13.4 µM | [11] 34.2 µM | [12] 31.2 µM | [13] 6.27 µM

CC(=O)OCC1OC(N2C(=O)/C(=N\NC(N)=S)c3ccc([N+](=O)[O-])cc32)C(OC(C)=O)C1OC(C)=O (centres undefined)
inactive: [1] 31 µM | [2] 43.4 µM | [14] 18.7 µM | [3] 70.5 µM | [4] 16.4 µM | [5] 15 µM | [6] 26.4 µM | [7] 19 µM | [8] 27.9 µM | [9] 32 µM | [15] 36.1 µM | [10] 18.6 µM | [11] 36.9 µM | [12] > 100 µM

O=C1N2Cc3c4ccc5c3CN3C(=O)N6Cc7c(ccc(c7CN1C6(c1ccccc1)C23c1ccccc1)OCCOCCOc1cc(Br)c(Br)cc1OCCOCCO4)OCCOCCOc1cc(Br)c(Br)cc1OCCOCCO5 (centres undefined)
inactive: [2] 39.2 µM | [14] > 100 µM | [3] 21.9 µM | [4] > 100 µM | [5] > 100 µM | [6] > 100 µM | [7] 36.5 µM | [8] > 100 µM | [9] 44.3 µM | [15] 39.3 µM | [10] 38.2 µM | [11] 15.1 µM | [12] 65.9 µM | [13] > 100 µM

CC1CCc2c(sc3ncnc(N/N=C/c4ccc(Cl)cc4)c23)C1 (centres undefined)
inactive: [1] 31.6 µM | [14] 18.6 µM | [3] 28 µM | [4] 32.8 µM | [5] 25.9 µM | [6] 35.4 µM | [8] 29.9 µM | [9] 17.6 µM | [15] 33.4 µM | [10] 78.9 µM | [11] 35.6 µM | [12] 38.2 µM | [13] 4.78 µM

C=CCN1C(=O)CS/C1=N\NC(=O)c1c(C)nc2sccn12
inactive: [1] > 100 µM | [2] > 100 µM | [14] > 100 µM | [4] > 100 µM | [5] > 100 µM | [6] > 100 µM | [8] > 100 µM | [9] > 100 µM | [15] > 100 µM | [11] > 100 µM | [12] > 100 µM

CN(C)CCNC(=O)c1cccc2ccc(-c3cccnc3)nc12
inactive: [16] 1.9 µM | [1] 3.13 µM | [2] 4.39 µM | [14] 4.74 µM | [3] 8.45 µM | [4] 4.39 µM | [6] 6.27 µM | [7] 8.24 µM | [9] 3.72 µM | [15] 3.61 µM | [10] 10.6 µM | [11] 3.76 µM | [12] 2.48 µM | [13] 1.98 µM

COc1ccc(C2NCCc3c2[nH]c2ccccc32)cc1 (centres undefined)
inactive: [1] 32.2 µM | [2] > 100 µM | [14] 60.8 µM | [3] 23.2 µM | [4] > 100 µM | [5] > 100 µM | [6] > 100 µM | [8] > 100 µM | [9] 22.5 µM | [15] > 100 µM | [10] 30.5 µM | [11] > 100 µM | [12] > 100 µM | [13] 42.3 µM

O=C(Nc1c(-c2nc3ccccc3[nH]2)sc(=S)n1-c1ccccc1)c1ccccc1
inactive: [16] > 100 µM | [1] > 100 µM | [14] > 100 µM | [3] > 100 µM | [4] > 100 µM | [5] > 100 µM | [6] 96.8 µM | [7] > 10 µM | [8] > 100 µM | [9] > 100 µM | [15] 74 µM | [10] 29.4 µM | [11] > 100 µM | [12] > 100 µM | [13] > 100 µM

CSc1n/c(=N\c2ccccc2)sn1-c1ccccc1
inactive: [16] 18.7 µM | [1] 7.73 µM | [14] 3.24 µM | [3] 10.7 µM | [4] 14.1 µM | [5] 2.71 µM | [6] 18 µM | [7] 5.3 µM | [8] 5.45 µM | [9] 11.2 µM | [15] 15.6 µM | [10] 27.2 µM | [11] 12.3 µM | [12] 26.7 µM | [13] 17.3 µM

Cn1c(=O)c(NC(=O)C(Cl)(Cl)Cl)nc2ccccc21
inactive: [16] > 100 µM | [1] > 100 µM | [14] > 100 µM | [3] > 100 µM | [4] > 100 µM | [5] > 100 µM | [6] > 100 µM | [8] > 100 µM | [9] > 100 µM | [15] > 100 µM | [10] 62.5 µM | [11] > 100 µM | [12] > 100 µM | [13] > 100 µM
